For 26 compounds, Emax, GI50 and IC50 results are on record in patent US11926619B2, “Certain pladienolide compounds and methods of use” (EISAI R&D MANAGEMENT CO., LTD., priority 2018, dated 2024).

Molecules are shown by their SMILES. pIC50: −log10 of the molar value.

Assay [1] deals with Panc 05.04 cells (pancreatic cancer cells; Q699H and K700E mutations in SF3B1). The experiment in a line: Cell viability assay (CellTiter-Glo, 72 hr), Panc 05.04 cells. In kind it is cell-based. Conditions: Panc 05.04 cells (mutant SF3B1); for Emax: maximum achievable response in tested dose range, negative value = cellular lethality, read-out: Panc 05.04 (mt SF3B1 cells) Emax (%); for GI50: read-out: Panc 05.04 (mt SF3B1 cells), GI50. The procedure, abridged:
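Panc 05.04 cells treated 72 hr at 37 °C with 9 compound concentrations (0.1% DMSO), duplicate or triplicate. ATP read by CellTiter-Glo; growth inhibition/viability calculated against a time-zero plate and DMSO control growth. Emax is the maximal response over the tested range, negative values meaning lethality.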

For another assay, the target named is T1, SF3b complexes (Homo sapiens, UniProt O75533+Q7RTV0).
T1 construct: endogenous in cells
The assay can be described thus: Scintillation proximity assay (SPA) with [3H]-labelled pladienolide probe. In kind it is binding. The note with it: wt SF3B1, read-out: SPA (wt SF3B1 cells) IC50. How it is done: Batch immobilization of anti-SF3B1 antibody (MBL) to anti-mouse PVT SPA scintillation beads (PerkinElmer) was prepared as follows: for every 2.5 mg of nuclear extracts, 5 μg anti-SF3B1 antibody and 1.5 mg of beads were mixed in 150 μl PBS. The antibody-bead mixture was incubated for 30 min at RT and centrifuged at 18,000 g for 5 min. 150 μl PBS was used to resuspend every 1.5 mg antibody-bead mixture. The beads were suspended and added to the prepared nuclear extracts. The slurry was incubated for 2 h at 4° C. with gentle mixing. The beads were then collected by centrifuging at 18,000 g for 5 min, and washed twice with PBS+0.1% Triton X-100. After a final centrifugation step, every 1.5 mg of beads was suspended with 150 μl of PBS. The SF3b complexes were tested for [^3H]-labelled pladienolide probe binding ([^3H]-PB), synthesized as previously described (Kotake et al., 2007). 100 μL binding reactions were prepared with 50 μl bead slurry and by adding varying concentrations of PB or PB—OH, and after 30 min pre-incubation, 2.5 nM [^3H]—PB was added. The mixture was incubated for 30 min, and luminescence signals were read using a MicroBeta2 Plate Counter (PerkinElmer). Prism 6 (Graphpad) was used for non-linear regression curve fitting of the data.

In assay [2] the test system is WiDr-R cells (colon cancer cells; chemically-induced SF3B1 R1074H mutant). The experiment in a line: Cell viability assay (CellTiter-Glo, 72 hr), resistant WiDr-R cells (counter-screen). The format is cell-based. Conditions: WiDr-R cells (SF3B1 R1074H mutation, resistant); read-out: WiDr-R GI50. Summed up:
(§1)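 Cells at 2000/well were exposed to 9 compound concentrations (0.1% DMSO) in duplicate or triplicate for 72 hr at 37 °C. ATP was read by CellTiter-Glo against a time-zero plate and DMSO control growth. Percent growth/viability was plotted against concentration to give Emax; negative values indicate lethality.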
Background: Cellular ATP, detected with luciferase, serves as a proxy for viable cell number.

Assay [3] relates to WiDr cells (colon cancer cells; wildtype SF3B1). The assay can be described thus: Cell viability assay (CellTiter-Glo, 72 hr), WiDr cells. In kind it is cell-based. Conditions: Homo sapiens; WiDr cells (wildtype SF3B1); read-out: WiDr GI50. Summed up:
as §1

Turning to `C/C(=C\C=C\[C@@H](C)c1ccccn1)[C@H]1OC(=O)C[C@H](O)CC[C@@](C)(O)[C@@H](O)/C=C/[C@@H]1C`, in assay [1], the Emax was found to be 49.5% and the GI50 – broadly, the concentration giving 50% growth inhibition – was 3980 nM. Further, the pIC50 (commonly −log10 of the IC50, conventionally taken in molar units) at SF3b complexes was less than 5.92.

In the case of `CC[C@H](O)[C@@H](C)[C@H]1O[C@@H]1C[C@H](C)/C=C/C=C(\C)[C@H]1OC(=O)C[C@H](O)CC[C@@](C)(OC)[C@@H](OC(=O)N2CCN(C)CC2)/C=C/[C@@H]1C`, at SF3b complexes, the pIC50 is 8.82.

`CC[C@H](O)[C@@H](C)[C@H]1O[C@@H]1C[C@H](C)/C=C/C=C(\C)[C@H]1OC(=O)C[C@H](O)CC[C@@](C)(OC(=O)N2CCNCC2)[C@@H](OC(C)=O)/C=C/[C@@H]1C`: in assay [1], the Emax is -78.9% and the GI50 came to 0.86 nM. Moreover, on SF3b complexes, the pIC50 was 8.68.

Turning to `C/C(=C\C=C\[C@@H](C)c1ccccn1)[C@H]1OC(=O)C[C@H](O)CC[C@@](C)(O)[C@@H](OC(=O)N2CCC(N3CC4CCC(C3)C4(F)F)CC2)/C=C/[C@@H]1C`, in assay [1], the Emax is -90.3% and the GI50 came to 76.1 nM. Moreover, the pIC50 on SF3b complexes was 7.32.

As for `CC[C@H](O)[C@@H](C)[C@H]1O[C@@H]1C[C@@](C)(O)/C=C/C=C(\C)[C@H]1OC(=O)C[C@H](O)CC[C@@](C)(OC)[C@@H](OC(=O)N(C)CCNC)/C=C/[C@@H]1C`, the pIC50 at SF3b complexes is 7.74.

In the case of `C\C(=C/C=C/C=C/[C@@H](C)c1ccccn1)C1OC(=O)C[C@H](O)CC[C@@](C)(O)[C@@H](OC(=O)N2CCN(C3CCCCCC3)CC2)/C=C/[C@@H]1C` (some centres unmarked), in assay [1], the Emax amounted to 11% and the GI50 came to 720 nM. On SF3b complexes, the pIC50 is 6.92.

Regarding `C/C(=C\C=C\[C@@H](C)c1ccccn1)[C@H]1OC(=O)C[C@H](O)CC[C@@](C)(O)[C@@H](OC(=O)N2CC[N+](C)([O-])CC2)/C=C/[C@@H]1C`, in assay [1], the Emax was -81.2% and the GI50 turned out to be 45.4 nM. In addition, on SF3b complexes, the pIC50 was 8.23.

Take `CC(=O)O[C@H]1/C=C/[C@H](C)[C@@H](/C(C)=C/C=C/C(c2ccccn2)C(C)C)OC(=O)C[C@H](O)CC[C@@]1(C)O` (some centres unmarked): the pIC50 on SF3b complexes was 7.68.

Take `CC[C@H](O)[C@@H](C)[C@H]1O[C@@H]1C[C@@](C)(O)/C=C/C=C(\C)[C@H]1OC(=O)C[C@H](O)CC[C@@](C)(OC)[C@@H](OC(=O)N2CCN(CCCC(=O)O)CC2)/C=C/[C@@H]1C`: at SF3b complexes, the pIC50 was 7.84.

Take `CC[C@H](O)[C@@H](C)[C@H]1O[C@@H]1C[C@H](C)/C=C/C=C(\C)[C@H]1OC(=O)C[C@H](O)CC[C@@](C)(OC)[C@@H](OC(=O)N2CCNCC2)/C=C/[C@@H]1C`: at SF3b complexes, the pIC50 is 9.00.

For `C/C(=C\C=C\[C@@H](C)c1ccccn1)[C@H]1OC(=O)C[C@H](O)CC[C@@](C)(O)[C@@H](OC(=O)N(C)C2CCN(C)CC2)/C=C/[C@@H]1C`, the GI50 in assay [2] is greater than 1000 nM; in assay [1] it was 25.1 nM; in assay [3], 16.2 nM. Besides, the Emax in assay [1] was -60.2%.

For `CC[C@H](O)[C@@H](C)[C@H]1O[C@@H]1C[C@@](C)(O)/C=C/C=C(\C)[C@H]1OC(=O)C[C@H](O)CC[C@@](C)(OC(C)=O)[C@@H](OC(=O)N2C[C@@H]3C[C@H]2CN3)/C=C/[C@@H]1C`, the pIC50 on SF3b complexes is 7.80.

Take `CC[C@H](O)[C@@H](C)[C@H]1O[C@@H]1C[C@@](C)(O)/C=C/C=C(\C)[C@H]1OC(=O)C[C@H](O)CC[C@@](C)(OC)[C@@H](OC(=O)N2CCNC(CCC(=O)O)C2)/C=C/[C@@H]1C` (some centres unmarked): the pIC50 at SF3b complexes was 7.53.

As to `C/C(=C\C=C\[C@@H](C)COC(=O)N1CCC[C@H]1C(N)=O)[C@H]1OC(=O)C[C@H](O)CC[C@@](C)(O)[C@@H](OC(=O)N2CCN(C3CCCCCC3)CC2)/C=C/[C@@H]1C`, the results for the GI50 in assay [2], in assay [1] and in assay [3] were greater than 1000 nM, 40.2 nM and 32.8 nM, respectively. Besides, the Emax in assay [1] was -92.9%.

As for `C/C(=C\C=C\C(C)c1ccnc(N(C)C)n1)[C@H]1OC(=O)C[C@H](O)CC[C@@](C)(O)[C@@H](OC(=O)N2CCN(C)CC2)/C=C/[C@@H]1C` (some centres unmarked), the GI50 in assay [2] is greater than 1000 nM; in assay [1], 1290 nM; in assay [3], 252 nM. Besides, in assay [1], the Emax is 6.97%.

Turning to `C/C(=C\C=C\[C@@H](C)COC(=O)N1CCCC1)[C@H]1OC(=O)C[C@@H](O)CC[C@@](C)(O)[C@@H](OC(=O)N2CCN(C)CC2)/C=C/[C@@H]1C`, the GI50 was greater than 1000 nM in assay [2], 12.3 nM in assay [1] and 25 nM in assay [3]. The Emax in assay [1] is -95.4%.

As for `CC[C@H](O)[C@@H](C)[C@H]1O[C@@H]1C[C@@](C)(O)/C=C/C=C(\C)[C@H]1OC(=O)C[C@H](O)CC[C@@](C)(OC(C)=O)[C@@H](OC(=O)N2CCN(CCO)CC2)/C=C/[C@@H]1C`, the pIC50 at SF3b complexes was 7.61.

With `CC(=O)O[C@H]1/C=C/[C@H](C)[C@@H](/C(C)=C/C=C/[C@@H](C)COC(=O)N2CCOCC2)OC(=O)C[C@H](O)CC[C@@]1(C)O`, the GI50 in assay [2] is greater than 10000 nM; in assay [1], 15.4 nM; in assay [3] it was 91.3 nM.

Take `CC(=O)O[C@H]1/C=C/[C@H](C)[C@@H](/C(C)=C/C=C/C(C)(O)c2ccccc2)OC(=O)C[C@H](O)CC[C@@]1(C)O` (some centres unmarked): the GI50 in assay [2] was greater than 10000 nM; in assay [1], 1500 nM; in assay [3], 657 nM. In addition, the Emax in assay [1] was found to be 13.3%.

Take `CC(=O)O[C@H]1/C=C/[C@H](C)[C@@H](/C(C)=C/C=C/C(C)c2cccc(OCC(C)C)n2)OC(=O)C[C@H](O)CC[C@@]1(C)O` (some centres unmarked): the results for the GI50 in assay [2], in assay [1] and in assay [3] were greater than 10000 nM, 842 nM and 440 nM, respectively. The Emax in assay [1] is -27.1%.

As to `CC(=O)O[C@H]1/C=C/[C@H](C)[C@@H](/C(C)=C/C=C/C(C)c2ccccc2)OC(=O)C[C@H](O)CC[C@@]1(C)O` (some centres unmarked), the figures for the GI50 in assay [2], in assay [1] and in assay [3] were greater than 10000 nM, 932 nM and 382 nM, respectively. In addition, the Emax in assay [1] came out at 12.3%.

Regarding `CC(=O)O[C@H]1/C=C/[C@H](C)[C@@H](/C(C)=C/C=C/Cc2ccncc2)OC(=O)C[C@H](O)CC[C@@]1(C)O`, the GI50 in assay [2] is greater than 10000 nM; in assay [1] it was greater than 6400 nM; in assay [3], 610 nM. The Emax in assay [1] was 76.5%.

As to `CC(=O)O[C@H]1/C=C/[C@H](C)[C@@H](/C(C)=C/C=C/C(C)c2cccc([C@H](C)CO)n2)OC(=O)C[C@H](O)CC[C@@]1(C)O` (some centres unmarked), the results for the GI50 in assay [2], in assay [1] and in assay [3] were greater than 10000 nM, 408 nM and 343 nM, respectively. The Emax in assay [1] is -28.2%.

As for `C/C(=C\C=C\[C@@H](C)COC(=O)N1CC[C@@H](C)C1)[C@H]1OC(=O)C[C@H](O)CC[C@@](C)(O)[C@@H](OC(=O)N2CCN(C3CCCCCC3)CC2)/C=C/[C@@H]1C`, the GI50 is greater than 1000 nM in assay [2], 1.2 nM in assay [1] and 3.93 nM in assay [3]. Moreover, the Emax in assay [1] is -86.6%.

Regarding `C/C(=C\C=C\[C@@H](C)COC(=O)N1CC[C@H](F)C1)[C@H]1OC(=O)C[C@H](O)CC[C@@](C)(O)[C@@H](OC(=O)N2CCN(C)CC2)/C=C/[C@@H]1C`, the GI50 in assay [2] was greater than 1000 nM; in assay [1] it was 4.86 nM; in assay [3] it was 2.84 nM. For the same compound, the Emax in assay [1] was -90.2%.

On to `CC(=O)O[C@H]1/C=C/[C@H](C)[C@@H](/C(C)=C/C=C/Cc2cccnc2)OC(=O)C[C@H](O)CC[C@@]1(C)O`, for which the values for the GI50 in assay [2], in assay [1] and in assay [3] were greater than 10000 nM, greater than 6400 nM and 538 nM, respectively. Besides, the Emax in assay [1] amounted to 84.5%.
